Data: patent publication US7612113B2, “Hydroxy tetrahydro-naphthalenylurea derivatives” (Xention Limited, priority 2002, dated 2009)
Where two headings read alike, the source gives them in different places.

Tests used:
[1] = molecular target: T1, human VR1 (Homo sapiens, UniProt Q8NER1); assay: capsaicin-induced Ca2+ influx in the human VR1-transfected CHO cell line (Assay 1); assay type: cell-based; settings: 10 nM capsaicin, human VR1-CHOluc9aeq cells
T1 construct: expressed in transfected cells
T1 sequence (Q8NER1 whole entry): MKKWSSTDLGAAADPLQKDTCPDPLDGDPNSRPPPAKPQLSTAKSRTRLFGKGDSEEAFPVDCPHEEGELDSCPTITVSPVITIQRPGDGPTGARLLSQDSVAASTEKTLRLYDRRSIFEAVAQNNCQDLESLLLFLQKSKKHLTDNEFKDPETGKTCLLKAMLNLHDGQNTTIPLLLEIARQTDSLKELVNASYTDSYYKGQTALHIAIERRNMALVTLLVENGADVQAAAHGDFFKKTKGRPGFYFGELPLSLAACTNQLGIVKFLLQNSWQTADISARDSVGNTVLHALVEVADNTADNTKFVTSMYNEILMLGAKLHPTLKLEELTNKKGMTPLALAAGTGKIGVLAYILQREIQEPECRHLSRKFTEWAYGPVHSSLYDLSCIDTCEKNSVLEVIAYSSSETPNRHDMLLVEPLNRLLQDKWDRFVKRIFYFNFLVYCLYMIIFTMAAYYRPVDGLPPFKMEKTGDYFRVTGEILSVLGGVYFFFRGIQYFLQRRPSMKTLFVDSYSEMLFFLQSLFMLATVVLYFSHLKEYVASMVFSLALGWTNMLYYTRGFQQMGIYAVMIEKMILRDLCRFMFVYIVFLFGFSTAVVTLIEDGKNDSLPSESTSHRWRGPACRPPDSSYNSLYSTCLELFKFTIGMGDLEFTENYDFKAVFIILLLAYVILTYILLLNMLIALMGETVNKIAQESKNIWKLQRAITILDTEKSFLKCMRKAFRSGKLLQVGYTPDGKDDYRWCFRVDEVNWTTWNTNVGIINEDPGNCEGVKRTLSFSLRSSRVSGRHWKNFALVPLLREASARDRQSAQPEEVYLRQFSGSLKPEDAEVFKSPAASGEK
Source text: [Measurement of capsaicin-induced Ca^2+ influx in the human VR1-transfected CHO cell line] (Assay 1)
• (1) Establishment of the Human VR1-CHOluc9aeq Cell Line • Human vanilloid receptor (hVR1) cDNA was cloned from libraries of axotomized dorsal root ganglia (WO 00/29577). The cloned hVR1 cDNA was constructed with pcDNA3 vector and transfected into a CHOluc9aeq cell line. The cell line contains aequorin and CRE-luciferase reporter genes as read-out signals. The transfectants were cloned by limiting dilution in selection medium (DMEM/F12 medium (Gibco BRL) supplemented with 10% FCS, 1.4 mM Sodium pyruvate, 20 mM HEPES, 0.15% Sodium bicarbonate, 100 U/ml penicillin, 100 μg/ml streptomycin, 2 mM glutamine, non-essential amino acids and 2 mg/ml G418). Ca^2+ influx was examined in the capsaicin-stimulated clones. A high responder clone was selected and used for further experiments in the project. The human VR1-CHOluc9aeq cells were maintained in the selection medium and passaged every 3-4 days at 1-2.5×10^5 cells/flask ([…]). • (2) Measurement of Ca^2+ Influx Using FDSS-3000 • Human VR1-CHOluc9aeq cells were suspended in a culture medium which is the same as the selection medium except for G418 and seeded at a density of 1,000 cells per well into 384-well plates (black walled clear-base/Nalge Nunc International). Following the culture for 48 hrs the medium was changed to 2 μM Fluo-3 AM (Molecular Probes) and 0.02% Puronic F-127 in assay buffer (Hank's balanced salt solution (HBSS), 17 mM HEPES (pH7.4), 1 mM Probenecid, 0.1% BSA) and the cells were incubated for 60 min at. 25° C. After washing twice with assay buffer the cells were incubated with a test compound or vehicle for 20 min at 25° C. Mobilization of cytoplasmic Ca^2+ was measured by FDSS-3000 (λex=488 nm, λem=540 nm/Hamamatsu Photonics) for 60 sec after the stimulation with 10 nM capsaicin. Integral R was calculated and compared with controls. [Measurement of the Capsaicin-Induced Ca^2+ Influx in Primary Cultured Rat Dorsal Root Ganglia Neurons] (Assay 2) • (1) Preparation of Rat Dorsal Root Ganglia Neurons • New born Wister rats (5-11 days) were sacrificed and dorsal root ganglia (DRG) was removed. DRG was incubated with 0.1% trypsin (Gibco BRL) in PBS(−) (Gibco BRL) for 30 min at 37° C., then a half volume of fetal calf serum (FCS) was added and the cells were spun down. The DRG neuron cells were resuspended in Ham F12/5% FCS/5% horse serum (Gibco BRL) and dispersed by repeated pipetting and passing through 70 μm mesh Falcon). The culture plate was incubated for 3 hours at 37° C. to remove contaminating Schwann cells. Non-adherent cells were recovered and further cultured in laminin-coated 384 well plates (Nunc) at 1×10^4 cells/50 μl/well for 2 days in the presence of 50 ng/ml recombinant rat NGF (Sigma) and 50 μM 5-fluorodeoxyuridine (Sigma). • (2) Ca^2+ Mobilization Assay • DRG neuron cells were washed twice with HBSS supplemented with 17 mM HEPES (pH 7.4) and 0.1% BSA. After incubating with 2 μM fluo-3AM (Molecular Probe), 0.02% PF127 (Gibco BRL) and 1 mM probenecid (Sigma) for 40 min at 37° C., cells were washed 3 times. The cells were incubated with VR1 antagonists or vehicle (dimethylsulphoxide) and then with 1 μM capsaicin in FDSS-6000 (λex=480 nm, λem=520 nm/Hamamatsu Photonics). The fluorescence changes at 480 nm were monitored for 2.5 min. Integral R was calculated and compared with controls. [Organ Bath Assay to Measure the Capsaicin-Induced Bladder Contraction] (Assay 3)
The data corresponds to the compounds as yielded by solid phase synthesis and thus to levels of purity of about 40 to 90%. For practical reasons, the compounds are grouped in four classes of activity as follows: IC50=A(<or=)0.1 μM<B(<or=)0.5 μM<C(<or=)1 μM<D

[2] = Table 1, read-out: activity class
[3] = read-out: In vitro activity class
[4] = Table 3, read-out: activity class
[5] = Table 2, read-out: activity class

| Structure (SMILES) | melting point [°C] | IC50 [1, 2] [µM] | IC50 [1, 3] [µM] | IC50 [1, 4] [µM] | IC50 [1, 5] [µM] |
| --- | --- | --- | --- | --- | --- |
| CN(C)c1ccc(NC(=O)Nc2cccc3c2CC(O)CC3)cc1 (centres unmarked) [Example 2-21] | 206 to 207 | > 1 |  |  |  |
| CC1(O)CCc2cccc(NC(=O)Nc3ccc(Cl)c(C(F)(F)F)c3)c2C1 (centres unmarked) [Example 2-41] | 213 | 0.1 to 0.5 |  |  |  |
| Cc1cccc(CNC(=O)Nc2cccc3c2CC(O)CC3)c1 (centres unmarked) [Example 2-24] | 194 to 196 | 0.1 to 0.5 |  |  |  |
| O=C(Nc1ccccc1Cl)Nc1cccc2c1CC(O)CC2 (centres unmarked) [Example 2-2] | 197 to 199 | 0.1 to 0.5 |  |  |  |
| O=C(Nc1ccc(Cl)cc1)Nc1cccc2c1CC(O)CC2 (centres unmarked) [Example 2-4] | 229 to 231 | < 0.1 |  |  |  |
| O=C(Nc1ccc(C(F)(F)F)cc1)Nc1cccc2c1CC(O)CC2 (centres unmarked) [Example 2-9] | 222 to 224 | < 0.1 |  |  |  |
| O=C(NCc1ccccc1F)Nc1cccc2c1CC(O)CC2 (centres unmarked) [Example 2-27] | 184 to 187 | 0.1 to 0.5 |  |  |  |
| CCOC(=O)c1ccc(NC(=O)Nc2cccc3c2CC(O)CC3)cc1 (centres unmarked) [Example 2-12] | 204 to 206 | < 0.1 |  |  |  |
| O=C(NCCc1ccccc1)Nc1cccc2c1CC(O)CC2 (centres unmarked) [Example 2-32] | 161 to 163 | 0.5 to 1 |  |  |  |
| O=C(Nc1ccc(Oc2ccccc2)cc1)Nc1cccc2c1CC(O)CC2 (centres unmarked) [Example 2-20] | 188 to 190 | < 0.1 |  |  |  |
| O=C(Nc1cccc2c1CC(O)CC2)Nc1cccc2ccccc12 (centres unmarked) [Example 2-13] | 250 to 252 | < 0.1 |  |  |  |
| Cc1cccc(NC(=O)Nc2cccc3c2CC(O)CC3)c1 (centres unmarked) [Example 2-18] | 198 to 200 | 0.1 to 0.5 |  |  |  |
| O=C(Nc1ccc(Br)cc1)Nc1cccc2c1CC(O)CC2 (centres unmarked) [Example 2-16] | 237 to 239 | < 0.1 |  |  |  |
| CCOC(=O)c1cccc(NC(=O)Nc2cccc3c2CC(O)CC3)c1 (centres unmarked) [Example 2-11] | 176 to 178 | < 0.1 |  |  |  |
| CCOC(=O)c1ccccc1NC(=O)Nc1cccc2c1CC(O)CC2 (centres unmarked) [Example 2-10] | 178 to 180 | > 1 |  |  |  |
| O=C(Nc1cccc(Cl)c1)Nc1cccc2c1CC(O)CC2 (centres unmarked) [Example 2-3] | 216 to 218 | < 0.1 |  |  |  |
| COc1ccc(CNC(=O)Nc2cccc3c2CC(O)CC3)cc1 (centres unmarked) [Example 2-31] | 209 to 211 | 0.1 to 0.5 |  |  |  |

| Structure (SMILES) | melting point [°C] | IC50 [1, 2] [µM] | IC50 [1, 3] [µM] | IC50 [1, 4] [µM] | IC50 [1, 5] [µM] |
| --- | --- | --- | --- | --- | --- |
| CN(C(=O)Nc1ccc(Cl)c(C(F)(F)F)c1)c1cccc2c1CC(O)CC2 (centres unmarked) [Example 2-40] | 136 to 137 | 0.1 to 0.5 |  |  |  |
| O=C(Nc1ccc(Cl)c(Cl)c1)Nc1cccc2c1CC(O)CC2 (centres unmarked) [Example 2-17] | 234 to 235 | < 0.1 |  |  |  |
| Cc1ccc(CNC(=O)Nc2cccc3c2CC(O)CC3)cc1 (centres unmarked) [Example 2-26] | 230 to 232 | < 0.1 |  |  |  |
| O=C(Nc1cccc(C(F)(F)F)c1)Nc1cccc2c1CC(O)CC2 (centres unmarked) [Example 2-8] | 227 to 228 | < 0.1 |  |  |  |
| O=C(Nc1ccccc1)Nc1cccc2c1CC(O)CC2 (centres unmarked) [Example 2-34] | 198 to 199 | 0.5 to 1 |  |  |  |
| O=C(NCc1ccc(F)cc1)Nc1cccc2c1CC(O)CC2 (centres unmarked) [Example 2-29] | 218 to 221 | < 0.1 |  |  |  |
| O=C(Nc1ccc(F)cc1)Nc1cccc2c1CC(O)CC2 (centres unmarked) [Example 2-15] | 214 to 216 | 0.1 to 0.5 |  |  |  |
| Cc1ccccc1CNC(=O)Nc1cccc2c1CC(O)CC2 (centres unmarked) [Example 2-23] | 224 to 226 | 0.1 to 0.5 |  |  |  |
| O=C(NCc1cccc(F)c1)Nc1cccc2c1CC(O)CC2 (centres unmarked) [Example 2-28] | 193 to 194 | 0.1 to 0.5 |  |  |  |
| O=C(NCc1ccccc1Cl)Nc1cccc2c1CC(O)CC2 (centres unmarked) [Example 2-30] | 213 to 215 | 0.1 to 0.5 |  |  |  |
| O=C(Nc1ccc(Cl)c(C(F)(F)F)c1)Nc1cccc2c1CC(O)CC2 (centres unmarked) [Example 1-1, N-[4-chloro-3-(trifluoromethyl)phenyl]-N′-(7-hydroxy-5,6,7,8-tetrahydro-1-naphthalenyl)urea] | 227 to 228 |  |  |  |  |
| COc1cccc(NC(=O)Nc2cccc3c2CC(O)CC3)c1 (centres unmarked) [Example 2-5] | 187 to 189 | 0.1 to 0.5 |  |  |  |
| CCNC(=O)Nc1cccc2c1CC(O)CC2 (centres unmarked) [Example 2-33] | 216 to 217 | > 1 |  |  |  |
| O=C(Nc1ccc(Cl)c(C(F)(F)F)c1)Nc1ccc(Br)c2c1CC(O)CC2 (centres unmarked) [Example 2-38] | 234 to 235 | < 0.1 |  |  |  |
| CC(C)c1ccc(NC(=O)Nc2cccc3c2CC(O)CC3)cc1 (centres unmarked) [Example 2-19] | 186 to 188 | < 0.1 |  |  |  |
| O=C(NCc1ccccc1)Nc1cccc2c1CC(O)CC2 (centres unmarked) [Example 2-22] | 198 to 200 | 0.1 to 0.5 |  |  |  |
| O=C(Nc1ccc2ccccc2c1)Nc1cccc2c1CC(O)CC2 (centres unmarked) [Example 2-14] | 212 to 214 | < 0.1 |  |  |  |

Other lines, results leading:

| melting point [°C] | IC50 [1, 2] [µM] | IC50 [1, 3] [µM] | IC50 [1, 4] [µM] | IC50 [1, 5] [µM] | Structure (SMILES) |
| --- | --- | --- | --- | --- | --- |
| 204.3 |  | < 0.1 |  |  | O=C(NCc1ccc(C(F)(F)F)cc1)Nc1cccc2c1C[C@H](O)CC2 [Example 4-4, N-{(R)-7-hydroxy-5,6,7,8-tetrahydro-naphthalen-1-yl}-N′-(4-trifluoromethyl-benzyl)-urea] |
| 194 to 195 |  |  | < 0.1 |  | O=C(Nc1cccc(Oc2ccccc2)c1)Nc1cccc2c1CC(O)CC2 (centres unmarked) [Example 5-10] |
| 204 to 205 |  |  | 0.1 to 0.5 |  | O=C(Nc1cccc(F)c1)Nc1cccc2c1CC(O)CC2 (centres unmarked) [Example 5-3] |
| 223 |  |  | 0.5 to 1 |  | Cc1ccccc1NC(=O)Nc1cccc2c1CC(O)CC2 (centres unmarked) [Example 5-6] |
| 226 to 228 |  |  | < 0.1 |  | O=C(Nc1cccc(I)c1)Nc1cccc2c1CC(O)CC2 (centres unmarked) [Example 5-13] |
| 198 to 200 |  | < 0.1 |  |  | O=C(Nc1ccc(OC(F)(F)F)cc1)Nc1cccc2c1CC(O)CC2 (centres unmarked) [Example 5-1, N-(7-hydroxy-5,6,7,8-tetrahydro-naphthalen-1-yl)-N′-(4-trifluoromethoxy-phenyl)-urea] |
|  |  |  |  | 0.1 to 0.5 | COc1ccc(CNC(=O)Nc2cccc3c2CC(O)CC3)c(OC)c1 (centres unmarked) [Example 4-20] |
|  |  |  |  | < 0.1 | O=C(NCc1cccc(OC(F)(F)F)c1)Nc1cccc2c1CC(O)CC2 (centres unmarked) [Example 4-29] |
|  |  | < 0.1 |  |  | O=C(NCc1ccc(OC(F)(F)F)cc1)Nc1cccc2c1CC(O)CC2 (centres unmarked) [Example 4-1, N-(7-hydroxy-5,6,7,8-tetrahydro-naphthalen-1-yl)-N′-(4-trifluoromethoxy-benzyl)-urea] |
|  |  |  |  | 0.1 to 0.5 | COc1ccccc1CNC(=O)Nc1cccc2c1CC(O)CC2 (centres unmarked) [Example 4-11] |
|  |  |  |  | 0.5 to 1 | Nc1ccc(CNC(=O)Nc2cccc3c2CC(O)CC3)cc1 (centres unmarked) [Example 4-31] |
|  |  |  | < 0.1 |  | CCc1cccc(NC(=O)Nc2cccc3c2CC(O)CC3)c1 (centres unmarked) [Example 5-23] |
|  |  |  |  | 0.5 to 1 | O=C(NCc1ccc(C(=O)O)cc1)Nc1cccc2c1CC(O)CC2 (centres unmarked) [Example 4-30] |
|  |  |  |  | 0.5 to 1 | Nc1ccccc1CNC(=O)Nc1cccc2c1CC(O)CC2 (centres unmarked) [Example 4-32] |
|  |  |  |  | < 0.1 | O=C(Nc1ccc(Oc2ccc(Cl)cc2)cc1)Nc1cccc2c1CC(O)CC2 (centres unmarked) [Example 4-39] |
|  |  |  | < 0.1 |  | CC(C)c1cccc(NC(=O)Nc2cccc3c2CC(O)CC3)c1 (centres unmarked) [Example 5-8] |
